In patent US20240208963A1, “CRYSTALLINE MELANOCORTIN SUBTYPE-2 RECEPTOR (MC2R) ANTAGONIST” (Crinetics Pharmaceuticals, Inc., priority 2022, published 2024):
Where a name gives a salt, the structure may show the parent alone. Read-outs that look alike come from different tables or passages of the source. Marks after values point to notes of the source that are not given here.

Columns and labels:
[1] = Solubility of solid state forms in solvents (gravimetric or solvent addition); type: physicochemical
Protocol: The solubility of certain solid state forms of Compound I was determined in various solvents by either gravimetric solubility or solvent addition.
About 25 mg of compound was weighed into vials. Approximately 5 vol. (0.125 mL) of solvent was added to the solids and the mixtures stirred at the designated temperature (RT or 50° C.). Solutions were noted and an additional 0.125 mL of solvent was added to the slurries. […] If a thicker slurry was noted, 0.25 mL of solvent was added (total volume 0.5 mL). If a thick slurry was again noted, an additional 0.25 mL of solvent was added (total volume 0.75 mL). After stirring for 2 days, the slurries were centrifuged, the supernatant was collected into preweighed vials, and the solvent evaporated at 50° C. (ambient pressure) without stirring. The vials containing the solid residues were dried in a vacuum oven at 50 C, 10^−2-10^−1 Torr, for 3 h before weighing again to determine the mass of solid that was dissolved in the supernatant (i.e. mg solid/mL solvent).
About 20 mg of compound was weighed into vials. Solvent was added in aliquots and stirred at the designated temperature until complete dissolution was observed. This measurement gave a solubility range.

[2] = Stability of crystalline forms at 40° C. and 75% relative humidity (XRPD, HPLC purity); settings: for Change by XRPD after storage / Degradation by HPLC purity analysis after storage: 40° C., 75% relative humidity
Protocol: Approximately 10 mg of the Crystalline Pattern D of Compound I Maleate, 20 mg of the Crystalline Pattern C of Compound I Maleate, and 10 mg of the Crystalline Pattern E of Compound I Mandelate were weighed into open 4 mL vials that were placed into a 20 mL vial containing a saturated NaCl solution. The vial was sealed and kept at 40° C. for 7 days, creating an atmosphere at 75% relative humidity in the system. After 7 days, the materials were sampled and plated for XRPD analysis.
The stability test was repeated on Patterns C and D of Compound I Maleate for 11 days.

[3] = Dynamic vapor sorption (DVS); type: physicochemical
Protocol: DVS was performed using a DVS Intrinsic 1. The sample (20-25 mg) was loaded into a sample pan, suspended from a microbalance and exposed to a humidified stream of nitrogen gas. The sample was held for a minimum of 5 min at each level and only progressed to the next humidity level if there was <0.002% change in weight between measurements (interval: 60 s) or 240 min had elapsed. The following program was used: • 1. Equilibration at 50% RH • 2. 50% to 2%. (50%, 40%, 30%, 20%, 10%, and 2%) • 3. 2% to 95% (2%, 10%, 20%, 30%, 40%, 50%, 60%, 70%, 80%, 90%, and 95%) • 4. 95% to 2% (95%, 80%, 70%, 60%, 50%, 40%, 30%, 20%, 10%, and 2%) • 5. 2% to 50% (2%, 10%, 20%, 30%, 40%, and 50%)

[4] = Solubility in simulated fluids and water; type: physicochemical; settings: 37° C.
Protocol: Calibration samples for solubility in simulated fluids were prepared with freebase Compound I.
Solubility in simulated fluids were studied with the mandelate and maleate solids. The simulated fluids FaSSIF (fasted-state intestinal), FaSSGF (fasted-state gastric), and FeSSIF (fed-state intestinal) were removed from the refrigerator, warmed to room temperature, and the pH of each was measured. Between 1.9 and 2.0 mg of each salt was weighed into four vials and 1 mL of each fluid was added, including water. Stir bars (10 mm) were added to the vials and the vials were stirred at 37° C. After 30 mi (mandelate samples) or 1 h (maleate samples), the pH of each solution was measured, then 400 μL of each was removed and syringe filtered with 0.45 µm syringe filters. Approximately 300 μL of the recovered filtrate was diluted 5× with diluent and injected for HPLC analysis. The remainder of the samples in the vials were allowed to stir overnight. After 24 h stirring at 37° C., samples were filtered and diluted as before, and injected for analysis.

[5] = Form stability at ambient conditions for one week (XRPD); type: physicochemical
From the text: Some of the samples generated in the antisolvent crystallization experiments were mixtures of Pattern B, Pattern C, and Pattern D. These samples were left at ambient conditions for one week, then analyzed again by XRPD.
Pure Pattern B was generated in the antisolvent crystallization with MIBK and heptane. […] The solids were scraped from the XRPD plate and used for simultaneous TGA/DSC analysis. […] After the solids required for the TGA/DSC analysis were transferred to the pan, the remainder of the solids were re-pressed to the XRPD sample plate and analyzed again.

CCOc1ccccc1-c1ccc(N2CCN(C(=O)C3(C(F)(F)F)CCC3)C[C@H]2CC)c(C(=O)N[C@@H]2CN3CCC2CC3)n1 [Pattern D Maleate, N-[(3S)-1-azabicyclo[2.2.2]octan-3-yl]-6-(2-ethoxyphenyl)-3-[(2R)-2-ethyl-4-[1-(trifluoromethyl)-cyclobutanecarbonyl]piperazin-1-yl]pyridine-2-carboxamide maleate]
Solubility (in words) ([1]; EtOAc and MIBK at RT and 50° C.): freely soluble and soluble
solubility ([1]; EtOAc, 50 °C, organic solvent or mixture, thermodynamic from solid, EtOAc, 50° C., read-out: Solubility): 68000 µg/mL
solubility ([1]; EtOAc, RT, maleate): 43^d mg/mL
solubility ([1]; EtOH, RT, maleate): >50^a mg/mL
solubility ([1]; EtOH:MtBE (1:9 vol.), organic solvent or mixture, thermodynamic from solid, EtOH:MtBE (1:9 vol.), RT, read-out: Solubility): 4000 µg/mL
solubility ([1]; EtOH:MtBE (3:7 vol.), organic solvent or mixture, thermodynamic from solid, EtOH:MtBE (3:7 vol.), RT, read-out: Solubility): 51000 µg/mL
Solubility (in words) ([1]; IP at RT): soluble
Behaviour in solvent (in words) ([1]; IPA, 50° C.): a slurry could not be maintained
solubility ([1]; IPA, organic solvent or mixture, thermodynamic from solid, IPA, RT, read-out: Solubility): 68000 µg/mL
solubility ([1]; IPA:MtBE (1:1 vol.), organic solvent or mixture, thermodynamic from solid, IPA:MtBE (1:1 vol.), RT, read-out: Solubility): 10000 µg/mL
solubility ([1]; IPA:MtBE (1:9 vol.), organic solvent or mixture, thermodynamic from solid, IPA:MtBE (1:9 vol.), RT, read-out: Solubility): < 3000 µg/mL
solubility ([1]; IPA:MtBE (3:7 vol.), organic solvent or mixture, thermodynamic from solid, IPA:MtBE (3:7 vol.), RT, read-out: Solubility): 7000 µg/mL
solubility ([1]; IPA:water (9:1 vol.), organic solvent or mixture, thermodynamic from solid, IPA:water (9:1 vol.), RT, read-out: Solubility): > 333000 µg/mL
solubility ([1]; IPAc, 50 °C, organic solvent or mixture, thermodynamic from solid, IPAc, 50° C., read-out: Solubility): 13000 µg/mL
solubility ([1]; IPAc, organic solvent or mixture, thermodynamic from solid, IPAc, RT, read-out: Solubility): 7000 µg/mL
solubility ([1]; MEK, RT, maleate): >50^a mg/mL
solubility ([1]; MIBK, 50 °C, organic solvent or mixture, thermodynamic from solid, MIBK, 50° C., read-out: Solubility): 65000 µg/mL
solubility ([1]; MIBK, RT, maleate): 43^c mg/mL
solubility ([1]; MeOAc, 50 °C, organic solvent or mixture, thermodynamic from solid, MeOAc, 50° C., read-out: Solubility): > 250000 µg/mL
solubility ([1]; MeOAc, organic solvent or mixture, thermodynamic from solid, MeOAc, RT, read-out: Solubility): 168000 µg/mL
solubility ([1]; MeOAc:MtBE (1:1 vol.), organic solvent or mixture, thermodynamic from solid, MeOAc:MtBE (1:1 vol.), RT, read-out: Solubility): 17000 µg/mL
solubility ([1]; MeOAc:MtBE (1:9 vol.), organic solvent or mixture, thermodynamic from solid, MeOAc:MtBE (1:9 vol.), RT, read-out: Solubility): 3000 µg/mL
solubility ([1]; MeOAc:MtBE (3:7 vol.), organic solvent or mixture, thermodynamic from solid, MeOAc:MtBE (3:7 vol.), RT, read-out: Solubility): 7000 µg/mL
solubility ([1]; MeOH, RT, maleate): >50^a mg/mL
solubility ([1]; MtBE, 50 °C, organic solvent or mixture, thermodynamic from solid, MtBE, 50° C., read-out: Solubility): < 3000 µg/mL
solubility ([1]; MtBE, RT, maleate): <3^c mg/mL
solubility ([1]; THF, RT, maleate): >50^a mg/mL
solubility ([1]; acetone, RT, maleate): >50^a mg/mL
solubility ([1]; diethyl ether, organic solvent or mixture, thermodynamic from solid, diethyl ether, RT, read-out: Solubility): 4000 µg/mL
Solubility (in words) ([1]; heptane, diethyl ether, and MtBE): insoluble
solubility ([1]; n-heptane, 50 °C, organic solvent or mixture, thermodynamic from solid, n-heptane, 50° C., read-out: Solubility): < 3000 µg/mL
solubility ([1]; n-heptane, RT, maleate): <3^c mg/mL
Change by XRPD after storage ([2]; 7 days): No visible change
Degradation by HPLC purity analysis after storage ([2]; 7 days): no degradation
Change by XRPD after storage ([2]; 11 days): No visible change
Degradation by HPLC purity analysis after storage ([2]; 11 days): no degradation
Stability on storage (in words) ([2]; over a week at 40° C. and 75% RH): stable
Hygroscopicity (in words) ([3]; DVS): slightly hygroscopic
Change by XRPD following the DVS analysis ([3]; after DVS from 2 to 95% RH): No change
Reversible mass gain (DVS) ([3]; from 2 to 95% relative humidity): 1.14 wt. %
Behaviour at high humidity ([3]; high humidity): stable
solubility at 1 h ([4]; FaSSGF (fasted-state simulated gastric fluid), pH 1.49, fassgf or other biorelevant, thermodynamic from solid, FaSSGF, 1 h): > 2500 µg/mL
solubility at 24 h ([4]; FaSSGF (fasted-state simulated gastric fluid), pH 1.49, fassgf or other biorelevant, thermodynamic from solid, FaSSGF, 24 h): > 2500 µg/mL
Sample pH ([4]; FaSSGF (initial pH 1.49), 1 h): 4.66
Sample pH ([4]; FaSSGF (initial pH 1.49), 24 h): 5.07
solubility at 24 h ([4]; FaSSIF (fasted-state simulated intestinal fluid), pH 6.35, thermodynamic from solid, FaSSIF, 24 h): 1470 µg/mL
solubility at 1 h ([4]; FaSSIF (fasted-state simulated intestinal fluid), thermodynamic from solid, FaSSIF, 1 h): 1500 µg/mL
Sample pH ([4]; FaSSIF (initial pH 6.35), 1 h): 6.23
Sample pH ([4]; FaSSIF (initial pH 6.35), 24 h): 6.92
Solids recovered from the solubility experiment (appearance, XRPD) ([4]; FaSSIF, after 24 h): oily and appeared as amorphous
solubility at 1 h ([4]; FeSSIF (fed-state simulated intestinal fluid), pH 4.83, thermodynamic from solid, FeSSIF, 1 h): > 2500 µg/mL
solubility at 24 h ([4]; FeSSIF (fed-state simulated intestinal fluid), pH 4.83, thermodynamic from solid, FeSSIF, 24 h): > 2500 µg/mL
Sample pH ([4]; FeSSIF (initial pH 4.83), 1 h): 1.50
Sample pH ([4]; FeSSIF (initial pH 4.83), 24 h): 1.85
solubility at 1 h ([4]; thermodynamic from solid, water, 1 h): > 2500 µg/mL
solubility at 24 h ([4]; thermodynamic from solid, water, 24 h): > 2500 µg/mL
Sample pH ([4]; water, 1 h): ~6.35
Sample pH ([4]; water, 24 h): 5.60
Form conversion by XRPD at ambient conditions [5]: no observable conversion
